The text below walks through data of ChEMBL document CHEMBL1129378, “Octanol-, chloroform-, and propylene glycol dipelargonat-water partitioning of morphine-6-glucuronide and other related opiates” (J Med Chem, 1996).

Data set [1] is described as follows: physchem.
Data set [2] in a line: physchem. This is another data set of the same source.
The conditions of data set [3]: octanol/water.
Description: Partition coefficient of cation (logD)
Data set [4] in a line: physchem. Particulars: buffer, pH 7.4.
Description: Log D of compound; LogD at pH 7.4
A short description of data set [5]: physchem. Particulars: octanol/water.
Description: (§1) Partition coefficient of Zwitterion (logD)
Data set [6] is described as follows: physchem. Particulars: octanol/water. This is another data set of the same source.
Description: Partition coefficient of anion (logD)
Data set [7] in a line: Partition coefficient (logD) of anion (chloroform/water). In kind it is physicochemical.
Data set [8] can be described thus: Partition coefficient (logD) of Zwitterion (chloroform/water). In kind it is physicochemical.
Data set [9] is described as follows: Log D of compound (Chloroform water medium). In kind it is physicochemical. Particulars: buffer.
Data set [10] can be described thus: Partition coefficient (logP) (chloroform). In kind it is physicochemical.
The nature of data set [11]: physchem. This is another data set of the same source.
Description: Sugar COOH pKa of compound
For data set [12] the following is noted: octanol/water. This is another data set of the same source.
Description: as §1
The nature of data set [13]: Phenolic pKa of compound with […] NaCl. It is filed as physicochemical.

Structures are written as SMILES. Bounds are passed on as bounds.

By pKa is commonly meant the pH at which an ionisable group is half protonated. Low readings indicate a group that gives up its proton readily, high ones a group that holds its proton tightly. One may read the logD as lipophilicity at a set pH, counting ionised and neutral species. The low end stands for a more hydrophilic compound, the high end for a more lipophilic compound. On to `CC(=O)O[C@H]1C=C[C@H]2[C@H]3Cc4ccc(O)c5c4[C@@]2(CCN3C)[C@H]1O5`, for which the pKa came out at 8.19 in [1] and 9.55 in data set [2]. In addition, the logD is under -2 in [3], 0.61 in data set [4], 1.55 in data set [5] and -0.42 in [6].

As usually defined, the logP is the decadic logarithm of the partition coefficient of the neutral form, usually between octanol and water. The low end stands for a more hydrophilic compound, the high end for a more lipophilic compound. `CN1CC[C@]23c4c5ccc(O[C@@H]6O[C@H](C(=O)O)[C@@H](O)[C@H](O)[C@H]6O)c4O[C@H]2[C@@H](O)C=C[C@H]3[C@H]1C5` [MORPHINE 3-GLUCURONIDE]: the logD in data set [7] is under -2; in data set [3], under -2; in [8], -1.12; in [9], -1.18; in data set [4], -1.12; in [5], -1.1. In data set [6], this molecule showed a logD of -1.45. The molecule also yielded a logP in data set [10] of -1.12.

For `CC(=O)Oc1ccc2c3c1O[C@H]1[C@@H](OC(C)=O)C=C[C@H]4[C@@H](C2)N(C)CC[C@@]341` [DIACETYLMORPHINE], the values for the logD in [3], in data set [4] and in data set [5] were -0.94, 0.85 and 1.58, respectively.

In turn, `COc1ccc2c3c1O[C@H]1[C@@H](O)C=C[C@H]4[C@@H](C2)NCC[C@@]341` [NORCODEINE] showed a pKa in data set [1] of 9.23. Besides, the logD in data set [3] is under -2; in data set [4] it was -1.26; in data set [5], 0.69; in data set [6], under -2.

In data set [2], `CN1CC[C@]23c4c5ccc(O)c4O[C@H]2[C@@H](O[C@@H]2O[C@H](C(=O)O)[C@@H](O)[C@H](O)[C@H]2O)C=C[C@H]3[C@H]1C5` [MORPHINE GLUCURONIDE] gave a pKa of 9.42.

Take `Cc1cc(=O)oc2cc(O[C@@H]3O[C@H](C(=O)O)[C@@H](O)[C@H](O)[C@H]3O)ccc12`: the logD in data set [4] was -1.32; in [5] it was -0.39; in [6] it was -1.3. In data set [11], this molecule came in with a pKa of 2.82.

As to `COc1ccc2c3c1O[C@H]1[C@@H](O)C=C[C@H]4[C@@H](C2)N(C)CC[C@@]341` [CODEINE], the logD in data set [3] was under -2; in data set [4], 0.22; in data set [12], 1.19.

On to `CO[C@]12CC[C@@]3(C[C@@H]1[C@](C)(O)C(C)(C)C)[C@H]1Cc4ccc(O)c5c4[C@@]3(CCN1CC1CC1)[C@H]2O5` [BUPRENORPHINE], for which the pKa in data set [1] turned out to be 8.31; in data set [13], 9.62. Moreover, the logD in [3] worked out at 0.45; in data set [4] it was 3.93; in [6] it was 3.24.
